Source: patent US6979686B1, “Substituted pyrazoles as p38 kinase inhibitors” (Pharmacia Corporation, priority 2001, dated 2005)
pIC50: −log10 of the molar value. Like-named read-outs stand apart in the source and are kept apart here.

Legend:
[1] = target: T1, human p38 kinase alpha (Homo sapiens, UniProt Q16539); assay: p38 kinase in vitro assay, phosphorylation of biotinylated PHAS-I with 32P-ATP; format: biochemical; conditions: for pIC50: read-out: P38 alpha kinase IC50; for inhibition at 1 µM: read-out: P38 alpha kinase % inhib @ conc.; for inhibition at 1 µM / P38 alpha kinase % inhib @ conc. (uM): @ 1.0 uM
T1 construct: GST (N, cleaved yes); made in house; host or cells: E. coli DH10B
T1 sequence (Q16539 whole entry): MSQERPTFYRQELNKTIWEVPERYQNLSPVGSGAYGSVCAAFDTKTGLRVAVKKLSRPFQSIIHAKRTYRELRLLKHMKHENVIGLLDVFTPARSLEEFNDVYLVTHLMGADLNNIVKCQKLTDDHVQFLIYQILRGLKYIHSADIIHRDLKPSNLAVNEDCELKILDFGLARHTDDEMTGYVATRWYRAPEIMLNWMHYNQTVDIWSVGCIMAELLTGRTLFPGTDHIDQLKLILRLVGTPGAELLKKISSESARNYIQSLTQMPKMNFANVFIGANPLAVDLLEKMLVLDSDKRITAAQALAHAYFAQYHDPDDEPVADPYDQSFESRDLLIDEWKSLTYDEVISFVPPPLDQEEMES

[2] = test system: TNF-α, U937 human histiocytic lymphoma cell line; assay: LPS stimulation of TNF production by U937 cells; format: cell-based; conditions: for inhibition at 1 µM: U-937, @ 1.0 uM; for inhibition at 1 µM / inhibition at 10 µM: read-out: U937 Cell % inhib @ conc.; for pIC50: human U937 cells stimulated with LPS, read-out: U937 Cell IC50; for U937 Cell % inhib @ conc. (uM): @ 1.0 uM; for inhibition at 10 µM: U-937, @ 10.0 uM
Outline: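 U937 cells differentiated 24 h with 20 ng/ml PMA, rested 24-48 h, used at 2 million cells/ml. Compounds in 0.1% DMSO final; LPS (E. coli, 100 ng/ml final) stimulation for 4 h at 37° C. Released TNF-α measured by ELISA; IC50 (μM).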

[3] = Homo sapiens, TNF production, LPS-stimulated U937 cells
[4] = in vitro P38-alpha kinase inhibition
[5] = Homo sapiens, U-937, TNF production
[6] = TNF production in human U937 cells stimulated with LPS
[7] = Homo sapiens, TNF production, U937 cells stimulated with LPS
[8] = Homo sapiens, TNF production in human U937 cells stimulated with LPS
[9] = TNF production, U937 cells stimulated with LPS
[10] = @ 10.0 uM, TNF production, U937 cells stimulated with LPS

With `O=S(=O)(NCCCc1[nH]nc(-c2ccc(F)cc2)c1-c1ccncc1)c1cccc(C(F)(F)F)c1` [Example B-1276] the pIC50 ([1]; in vitro P38-alpha kinase) was 7.21 and the inhibition at 1 µM [2, 3] was 11%.

Work on `O=C(NC(Cc1ccccc1)c1[nH]nc(-c2ccc(F)cc2)c1-c1ccncc1)c1ccc(F)cc1` (stereo not drawn) [Example B-0800] yielded a pIC50 [1, 4] of 6.00 and a pIC50 [2, 5] of under 6.00.

Compound `CC(C)C(=O)NC(Cc1ccccc1)c1[nH]nc(-c2ccc(F)cc2)c1-c1ccncc1` (stereo not drawn) [Example B-0831] has a pIC50 [1, 4] of 6.05 and a pIC50 [2, 5] of under 6.00.

For `C[C@@H](NC(=O)[C@H]1CCCN1)c1[nH]nc(-c2ccc(F)cc2)c1-c1ccncc1` [Example B-0428], the pIC50 [1, 4] was 6.00 and the “U937 Cell % inhib @ conc. (uM)” value [2, 6] was 27.0% @.

Compound `Cc1c(-c2ccncc2)c(-c2ccc(F)cc2)nn1CC(=O)NCCCN1CCN(C)CC1` [Example B-2289] has a pIC50 ([1]; in vitro P38-alpha kinase) of 5.52 and an inhibition at 10 µM [2, 3] of 30%.

With `O=C(NCc1[nH]nc(-c2ccc(F)cc2)c1-c1ccncc1)c1ccc(F)c(F)c1` [Example B-0045] the inhibition at 1 µM [1] was 94% and the pIC50 [2, 5] was 6.00.

Work on `O=C(NCc1[nH]nc(-c2ccc(F)cc2)c1-c1ccncc1)c1c(Cl)cc(Cl)cc1Cl` [Example B-0019] yielded an inhibition at 1 µM [1] of 84% and an inhibition at 10 µM [2, 7] of 100%.

Work on `COc1ccc(CC(=O)NC(C)c2[nH]nc(-c3ccc(F)cc3)c2-c2ccncc2)cc1OC` (stereo not drawn) [Example B-0548] yielded a pIC50 [1, 4] of 5.75 and an inhibition at 1 µM [2, 8] of 28%.

`COc1ccc(NC(=O)NCCc2[nH]nc(-c3ccc(F)cc3)c2-c2ccncc2)cc1` [Example B-0978] was tested, and the “P38 alpha kinase % inhib @ conc. (uM)” value [1] was 59.0% @ and the “U937 Cell % inhib @ conc. (uM)” value [2, 9] was 36.0% @.

Compound `COc1ccccc1C(=O)NC(Cc1ccccc1)c1[nH]nc(-c2ccc(F)cc2)c1-c1ccncc1` (stereo not drawn) [Example B-0843] has a pIC50 [1, 4] of 6.21 and a pIC50 [2, 5] of under 6.00.

In the case of `COc1ccc(C2OCCN2C(=O)Cn2nc(-c3ccc(F)cc3)c(-c3ccncc3)c2C)cc1OC` (stereo not drawn) [Example B-2399], the “P38 alpha kinase IC50, uM or % inhib @ conc. (uM): % inhib” value ([1]; @ 10.0 uM) was 69.0% @ and the “U937 Cell IC50, uM or % inhib @ conc. (uM): % inhib” value [2, 10] was 18.0% @.

In the case of `COc1cccc(C(=O)NCCCc2[nH]nc(-c3ccc(F)cc3)c2-c2ccncc2)c1` [Example B-1185], the “P38 alpha kinase % inhib @ conc. (uM)” value [1] was 71.0% @ and the pIC50 ([2]; TNF production) was 6.10.

For `CC(NC(=O)NC(C)c1[nH]nc(-c2ccc(F)cc2)c1-c1ccncc1)c1ccccc1` (stereo not drawn) [Example B-0591], the pIC50 [1, 4] was 5.44 and the “U937 Cell % inhib @ conc. (uM)” value [2, 6] was 29.0% @.

Compound `O=C(Nc1ccccc1F)N1CCC(c2[nH]nc(-c3ccc(F)cc3)c2-c2ccncc2)CC1` [Example B-1379] has a pIC50 ([1]; in vitro P38-alpha kinase) of over 7.00 and a pIC50 [2, 5] of 7.04.

With `CNC(=O)CCC(NC(=O)c1ccno1)c1[nH]nc(-c2ccc(F)cc2)c1-c1ccncc1` (stereo not drawn) [Example B-0869] the pIC50 [1, 4] was 5.38 and the pIC50 [2, 5] was under 6.00.

`COc1ccc(Br)cc1S(=O)(=O)N1CCC(c2[nH]nc(-c3ccc(F)cc3)c2-c2ccncc2)CC1` [Example B-1446] showed a pIC50 ([1]; in vitro P38-alpha kinase) of 6.11 and an inhibition at 1 µM [2, 3] of 36%.

With `CC(NS(=O)(=O)c1cccc2cnccc12)c1[nH]nc(-c2ccc(F)cc2)c1-c1ccncc1` (stereo not drawn) [Example B-0490] the pIC50 [1, 4] was 6.04 and the inhibition at 1 µM [2, 8] was 74%.

`O=C(NCCc1[nH]nc(-c2ccc(F)cc2)c1-c1ccncc1)c1ccc(F)c(F)c1F` [Example B-0997] was tested, and the “P38 alpha kinase % inhib @ conc. (uM)” value [1] was 69.0% @ and the “U937 Cell % inhib @ conc. (uM)” value [2, 9] was 22.0% @.

For `Cc1ccccc1C(=O)NCCc1[nH]nc(-c2ccc(F)cc2)c1-c1ccncc1` [Example B-1120], the pIC50 [1, 4] was 6.33 and the inhibition at 1 µM [2, 7] was 9%.

In the case of `COCC(=O)NC(Cc1ccccc1)c1[nH]nc(-c2ccc(F)cc2)c1-c1ccncc1` (stereo not drawn) [Example B-0810], the pIC50 [1, 4] was 5.95 and the pIC50 [2, 5] was under 6.00.

In the case of `CC(C)=CC(=O)NCc1[nH]nc(-c2ccc(F)cc2)c1-c1ccncc1` [Example B-0027], the inhibition at 1 µM [1] was 94% and the pIC50 [2, 5] was 4.96.

With `CCOC(=O)COc1cccc(NC(=O)Cn2nc(-c3ccc(F)cc3)c(-c3ccncc3)c2C)c1` [Example B-2458] the “P38 alpha kinase IC50, uM or % inhib @ conc. (uM): % inhib” value ([1]; @ 10.0 uM) was 83.0% @ and the “U937 Cell IC50, uM or % inhib @ conc. (uM): % inhib” value [2, 10] was 36.0% @.

In the case of `O=S(=O)(c1cccc(Cl)c1Cl)N1CCC(c2[nH]nc(-c3ccc(F)cc3)c2-c2ccncc2)CC1` [Example B-1448], the pIC50 ([1]; in vitro P38-alpha kinase) was 5.84 and the inhibition at 1 µM [2, 3] was 22%.

`Cc1c(-c2ccncc2)c(-c2ccc(F)cc2)nn1CC(=O)NC1CCc2ccccc21` (stereo not drawn) [Example B-2318] was tested, and the “P38 alpha kinase % inhib @ conc.” value ([1]; @ 10.0 uM) was 73.0% @ and the “U937 Cell % inhib @ conc.” value ([2]; @ 10.0 uM, TNF production, LPS-stimulated U937 cells) was 25.0% @.
